SMILES strings stand for the structures.

The target of the experiment is T1, human PTH1 receptor (Homo sapiens, UniProt Q03431).
T1 sequence (Q03431 27-593): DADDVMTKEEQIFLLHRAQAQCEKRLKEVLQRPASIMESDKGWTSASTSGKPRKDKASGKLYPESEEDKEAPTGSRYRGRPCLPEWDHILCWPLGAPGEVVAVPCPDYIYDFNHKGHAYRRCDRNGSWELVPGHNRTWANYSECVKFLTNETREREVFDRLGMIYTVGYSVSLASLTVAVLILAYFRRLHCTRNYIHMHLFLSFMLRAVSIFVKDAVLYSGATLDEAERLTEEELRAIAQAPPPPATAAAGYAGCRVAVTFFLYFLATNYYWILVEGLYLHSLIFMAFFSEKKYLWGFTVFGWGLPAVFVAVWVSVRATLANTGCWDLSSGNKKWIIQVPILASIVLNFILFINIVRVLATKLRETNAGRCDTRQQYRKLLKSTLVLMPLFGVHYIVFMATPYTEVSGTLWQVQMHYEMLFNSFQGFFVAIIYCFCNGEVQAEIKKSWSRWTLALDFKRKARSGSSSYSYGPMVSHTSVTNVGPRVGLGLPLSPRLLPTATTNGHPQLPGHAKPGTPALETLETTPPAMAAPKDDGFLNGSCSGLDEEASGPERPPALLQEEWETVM
In words: In vitro cAMP signal activity in HKRK-B7 cells (LLC-PK1 cells overexpressing the human PTH1 receptor). Format: cell-based. The conditions noted are these: HKRK-B7 cells; compound at 1×10^−3 M; cAMP produced as percentage of that produced by hPTH(1-34) at 100 nM.
Take `Cc1cc(OC[C@H](O)CO)cc(C)c1/C=C/S(=O)(=O)N1CCC2(CC1)N=C(c1ccc(F)c(OC(F)(F)F)c1)NC2=O` [Compound 1164, 8-{(E)-2-[4-((R)-2,3-Dihydroxy-propoxy)-2,6-dimethyl-phenyl]-ethenesulfonyl}-2-(4-fluoro-3-trifluoromethoxy-phenyl)-1,3,8-triaza-spiro[4.5]dec-1-en-4-one]: the “cAMP production activity (%)” value was determined as 4.7%.
To `Cc1cc(OC[C@H](O)CO)cc(C)c1/C=C/S(=O)(=O)N1CCC2(CC1)N=C(c1ccc3c(c1)OC(F)(F)O3)NC2=O` [Compound 1165, 2-(2,2-difluoro-benzo[1,3]dioxol-5-yl)-8-{(E)-2-[4-((R)-2,3-dihydroxy-propoxy)-2,6-dimethyl-phenyl]-ethenesulfonyl}-1,3,8-triaza-spiro[4.5]dec-1-en-4-one] belongs 4.3%; to `Cc1cc(OCCC(O)CO)ccc1/C=C/S(=O)(=O)N1CCC2(CC1)N=C(c1ccc(F)c(OC(F)(F)F)c1)NC2=O` (centres unmarked) [Compound 1166, 8-{(E)-2-[4-(3,4-Dihydroxy-butoxy)-2-methyl-phenyl]-ethenesulfonyl}-2-(4-fluoro-3-trifluoromethoxy-phenyl)-1,3,8-triaza-spiro[4.5]dec-1-en-4-one], 144%; to `Cc1cc(OCCC(O)CO)ccc1/C=C/S(=O)(=O)N1CCC2(CC1)N=C(c1ccc3c(c1)OC(F)(F)O3)NC2=O` (centres unmarked) [Compound 1167, 2-(2,2-difluoro-benzo[1,3]dioxol-5-yl)-8-{(E)-2-[4-(3,4-dihydroxy-butoxy)-2-methyl-phenyl]-ethenesulfonyl}-1,3,8-triaza-spiro[4.5]dec-1-en-4-one], 115%.
Next, `O=C(O)Cn1ccc2c(/C=C/S(=O)(=O)N3CCC4(CC3)N=C(C3CCCCC3)NC4=O)cccc21` [Compound 1168, {4-[(E)-2-(2-Cyclohexyl-4-oxo-1,3,8-triaza-spiro[4.5]dec-1-ene-8-sulfonyl)-vinyl]-indol-1-yl}-acetic acid]: 27%.
For the molecule `Cc1cc(NC(=O)NCC(=O)O)ccc1/C=C/S(=O)(=O)N1CCC2(CC1)N=C(C1CCC(C)CC1)NC2=O` (centres unmarked) [Compound 1169, [3-(3-methyl-4-{(E)-2-[2-(4-methyl-cyclohexyl)-4-oxo-1,3,8-triaza-spiro[4.5]dec-1-ene-8-sulfonyl]-vinyl}-phenyl)-ureido]-acetic acid], the “cAMP production activity (%)” value was determined as 50%.
To `Cc1cc(N(C)C(N)=O)cc(C)c1CCS(=O)(=O)N1CCC2(CC1)N=C(CCCCCCCCCCCC(=O)O)NC2=O` [Compound 1170, 12-(8-{2-[2,6-dimethyl-4-(1-methyl-ureido)-phenyl]-ethanesulfonyl}-4-oxo-1,3,8-triaza-spiro[4.5]dec-1-en-2-yl)-dodecanoic acid] belongs 24%; to `Cc1cc(N(C)C(N)=O)cc(C)c1/C=C/S(=O)(=O)N1CCC2(CC1)N=C(CCCCCCCCCC(=O)O)NC2=O` [Compound 1171, 10-(8-{(E)-2-[2,6-Dimethyl-4-(1-methyl-ureido)-phenyl]-ethenesulfonyl}-4-oxo-1,3,8-triaza-spiro[4.5]dec-1-en-2-yl)-decanoic acid], 28%.
To `Cc1cc(N(C)C(N)=O)cc(C)c1/C=C/S(=O)(=O)N1CCC2(CC1)N=C(CCCCCCCCCC(N)=O)NC2=O` [Compound 1172, 10-(8-{(E)-2-[2,6-Dimethyl-4-(1-methyl-ureido)-phenyl]-ethenesulfonyl}-4-oxo-1,3,8-triaza-spiro[4.5]dec-1-en-2-yl)-decanoic amide] belongs 73%; to `Cc1cc(N(C)C(N)=O)cc(C)c1/C=C/S(=O)(=O)N1CCC2(CC1)N=C(CCCCCCCCCCCC(N)=O)NC2=O` [Compound 1173, 12-(8-{(E)-2-[2,6-dimethyl-4-(1-methyl-ureido)-phenyl]-ethenesulfonyl}-4-oxo-1,3,8-triaza-spiro[4.5]dec-1-en-2-yl)-dodecanoic acid amide], 85%; to `Cc1cc(N(C)C(N)=O)cc(C)c1CCS(=O)(=O)N1CCC2(CC1)N=C(CCCCCCCCCCCC(N)=O)NC2=O` [Compound 1174, 12-(8-{2-[2,6-dimethyl-4-(1-methyl-ureido)-phenyl]-ethanesulfonyl}-4-oxo-1,3,8-triaza-spiro[4.5]dec-1-en-2-yl)-dodecanoic acid amide], 91%.
Consider `Cc1cc(N(C)C(N)=O)cc(C)c1/C=C/S(=O)(=O)N1CCC2(CC1)N=C(CCCCCCCCCCCCCC(N)=O)NC2=O` [Compound 1175, 14-(8-{(E)-2-[2,6-dimethyl-4-(1-methyl-ureido)-phenyl]-ethenesulfonyl}-4-oxo-1,3,8-triaza-spiro[4.5]dec-1-en-2-yl)-tetradecanoic acid amide], for which the “cAMP production activity (%)” value was 81%.
Next, `Cc1cc(N(C)C(N)=O)cc(C)c1CCS(=O)(=O)N1CCC2(CC1)N=C(CCCCCCCCCCCCCC(N)=O)NC2=O` [Compound 1176, 14-(8-{2-[2,6-dimethyl-4-(1-methyl-ureido)-phenyl]-ethanesulfonyl}-4-oxo-1,3,8-triaza-spiro[4.5]dec-1-en-2-yl)-tetradecanoic acid amide]: 82%.
Take `Cc1cc2nc(N)oc2c(C)c1CCS(=O)(=O)N1CCC2(CC1)N=C(C1CCC(C)CC1)NC2=O` (centres unmarked) [Compound 1178, 8-[2-(2-Amino-5,7-dimethyl-benzoxazol-6-yl)-ethanesulfonyl]-2-(4-methyl-cyclohexyl)-1,3,8-triaza-spiro[4.5]dec-1-en-4-one]: the “cAMP production activity (%)” value was 84%.
Next, `Cc1cc(C(=O)N2CCOC2=O)cc(C)c1CCS(=O)(=O)N1CCC2(CC1)N=C(C1CCCCC1)NC2=O` [Compound 1179, 2-Cyclohexyl-8-{2-[2,6-dimethyl-4-(2-oxo-oxazolidine-3-carbonyl)-phenyl]-ethanesulfonyl}-1,3,8-triaza-spiro[4.5]dec-1-en-4-one]: 65%; `CON(C)C(=O)c1cc(C)c(CCS(=O)(=O)N2CCC3(CC2)N=C(C2CCC(C)CC2)NC3=O)c(C)c1` (centres unmarked) [Compound 1180, N-methoxy-3,5,N-trimethyl-4-{2-[2-(4-methyl-cyclohexyl)-4-oxo-1,3,8-triaza-spiro[4.5]dec-1-ene-8-sulfonyl]-ethyl}-benzamide]: 73%; `Cc1cc(C(=O)N2CCCO2)cc(C)c1CCS(=O)(=O)N1CCC2(CC1)N=C(C1CCC(CCC(F)(F)F)CC1)NC2=O` (centres unmarked) [Compound 1181, 8-{2-[4-(isoxazolidine-2-carbonyl)-2,6-dimethyl-phenyl]-ethanesulfonyl}-2-[4-(3,3,3-trifluoro-propyl)-cyclohexyl]-1,3,8-triaza-spiro[4.5]dec-1-en-4-one]: 98%.
In the case of `Cc1cc(C(=O)N2CCCO2)cc(C)c1CCS(=O)(=O)N1CCC2(CC1)N=C(C1CCC(C)CC1)NC2=O` (centres unmarked) [Compound 1182, 8-{2-[4-(isoxazolidine-2-carbonyl)-2,6-dimethyl-phenyl]-ethanesulfonyl}-2-(4-methyl-cyclohexyl)-1,3,8-triaza-spiro[4.5]dec-1-en-4-one], the “cAMP production activity (%)” value worked out at 109%.
Next, `Cc1cc(C(=O)N2CCS(=O)(=O)CC2)cc(C)c1CCS(=O)(=O)N1CCC2(CC1)N=C(C1CCC(C)CC1)NC2=O` (centres unmarked) [Compound 1183, 8-{2-[4-(1,1-dioxo-1λ^6-thiomorpholine-4-carbonyl)-2,6-dimethyl-phenyl]-ethanesulfonyl}-2-(4-methyl-cyclohexyl)-1,3,8-triaza-spiro[4.5]dec-1-en-4-one]: 90%.
On to `Cc1cc(C(=O)N2CCC(OC[C@H](O)CO)CC2)cc(C)c1CCS(=O)(=O)N1CCC2(CC1)N=C(CCCCCCCCC(F)(F)F)NC2=O` [Compound 1184, 8-(2-{4-[4-((R)-2,3-dihydroxy-propoxy)-piperidine-1-carbonyl]-2,6-dimethyl-phenyl}-ethanesulfonyl)-2-(9,9,9-trifluoro-nonyl)-1,3,8-triaza-spiro[4.5]dec-1-en-4-one], for which the “cAMP production activity (%)” value was found to be 108%.
Next, `Cc1cc(C(=O)N2CCC(C)(O)CC2)cc(C)c1/C=C/S(=O)(=O)N1CCC2(CC1)N=C(c1ccc(Cl)c(Cl)c1)NC2=O` [Compound 1185, 2-(3,4-Dichloro-phenyl)-8-{(E)-2-[4-(4-hydroxy-4-methyl-piperidine-1-carbonyl)-2,6-dimethyl-phenyl]-ethenesulfonyl}-1,3,8-triaza-spiro[4.5]dec-1-en-4-one]: 102%.
Take `Cc1cc(C(=O)N2CCC(C)(O)CC2)cc(C)c1/C=C/S(=O)(=O)N1CCC2(CC1)N=C(c1ccc(F)c(Cl)c1)NC2=O` [Compound 1186, 2-(3-chloro-4-fluoro-phenyl)-8-{(E)-2-[4-(4-hydroxy-4-methyl-piperidine-1-carbonyl)-2,6-dimethyl-phenyl]-ethenesulfonyl}-1,3,8-triaza-spiro[4.5]dec-1-en-4-one]: the “cAMP production activity (%)” value was 110%.
As for `Cc1cc(C(=O)N2CCC(C)(O)CC2)cc(C)c1/C=C/S(=O)(=O)N1CCC2(CC1)N=C(c1cccc(CC#N)c1)NC2=O` [Compound 1187, [3-(8-{(E)-2-[4-(4-hydroxy-4-methyl-piperidine-1-carbonyl)-2,6-dimethyl-phenyl]-ethenesulfonyl}-4-oxo-1,3,8-triaza-spiro[4.5]dec-1-en-2-yl)-phenyl]-acetonitrile], the “cAMP production activity (%)” value is on record as 75%.

The record behind these values is patent US9169254B2, “Spiroimidazolone derivative” (Chugai Seiyaku Kabushiki Kaisha, priority 2009, dated 2015).
